Assay results reported in US20130102593A1, “PYRROLIDINE COMPOUNDS WHICH INHIBIT BETA-SECRETASE ACTIVITY AND METHODS OF USE THEREOF” (priority 2008, published 2013).

test system: Aβ production; experiment: Cellular Aβ IC50 determination (memapsin 2 activity in a cellular assay of Aβ production); format: cell-based, Chinese hamster; conditions: Cricetulus griseus; CHO cells over-expressing human APP695, Aβ40 ELISA; read-out: M2 IC50
Experimental: The potency of compounds against memapsin 2 activity was determined in a cellular assay of Aβ production. […] Chinese hamster ovary cells that over-express human APP695 with the London and Swedish mutations were seeded in multi-well plates at 10% confluency. Compounds are dissolved in DMSO to concentrations near 1 mM, and diluted into culture media to a final concentration near 4 μM (final 0.4% DMSO). Compounds were diluted serially and applied to cells in multi-well plates 48 h after seeding. Incubation was continued in 5% CO2 at 37° C. for 24 h. Aliquots were removed and assayed for […] content using a sandwich ELISA (BioSource International). Amount of Aβ40 over the range of concentration of compounds, relative to control incubations, were fit to a 4-parameter IC50 model.

IC50 [nM] | SMILES
55.6 | Cc1csc([C@H]2CCCN2C(=O)c2cc(C(=O)N[C@@H](Cc3ccccc3)[C@H](O)[C@H]3C[C@@H](OCc4ccccc4)CN3)cc(-n3cccc3)c2)n1 [1-25, N-((1R,2S)-1-((2R,4R)-4-(benzyloxy)pyrrolidin-2-yl)-1-hydroxy-3-phenylpropan-2-yl)-3-((R)-2-(4-methylthiazol-2-yl)pyrrolidine-1-carbonyl)-5-(1H-pyrrol-1-yl)benzamide]

same assay, conditions: Cricetulus griseus; Chinese hamster ovary cells over-expressing human APP695 with London and Swedish mutations, 24 h, Aβ40 sandwich ELISA; read-out: M2 IC50

SMILES | IC50 [nM]
Cc1csc(CN(C)C(=O)c2cccc(C(=O)N[C@@H](Cc3ccccc3)[C@H](O)[C@H]3CCCN3C(=O)OC(C)(C)C)c2)n1 [1-1, (R)-tert-butyl 2-((1S,2S)-1-hydroxy-2-(3-(methyl((4-methylthiazol-2-yl)methyl)carbamoyl)benzamido)-3-phenylpropyl)pyrrolidine-1-carboxylate] | > 1000
Cc1csc(CN(C)C(=O)c2cccc(C(=O)N[C@@H](Cc3ccccc3)[C@H](O)[C@H]3CCCN3)c2)n1 [1-2, N1-((1R,2S)-1-hydroxy-3-phenyl-1-((R)-pyrrolidin-2-yl)propan-2-yl)-N3-methyl-N3-((4-methylthiazol-2-yl)methyl)isophthalamide] | > 1000
Cc1coc([C@H]2CCCN2C(=O)c2cccc(C(=O)N[C@@H](Cc3ccccc3)[C@H](O)[C@H]3CCCN3)c2)n1 [1-4, N-((1R,2S)-1-hydroxy-3-phenyl-1-((R)-pyrrolidin-2-yl)propan-2-yl)-3-((R)-2-(4-methyloxazol-2-yl)pyrrolidine-1-carbonyl)benzamide] | > 1000
C[C@@H](NC(=O)c1cc(C(=O)N[C@@H](Cc2ccccc2)[C@H](O)[C@H]2CCCN2C(=O)OC(C)(C)C)cc(N(C)S(C)(=O)=O)c1)c1ccccc1 [1-5, (R)-tert-butyl 2-((1S,2S)-1-hydroxy-2-(3-(N-methylmethylsulfonamido)-5-((R)-1-phenylethylcarbamoyl)benzamido)-3-phenylpropyl)pyrrolidine-1-carboxylate] | > 1000
Cc1cc(C(=O)N[C@@H](Cc2ccccc2)[C@H](O)[C@H]2CCCN2C(=O)OC(C)(C)C)cc(C(=O)N2CCC[C@@H]2c2nc(C)co2)c1 [1-6, (R)-tert-butyl 2-((1S,2S)-1-hydroxy-2-(3-methyl-5-((R)-2-(4-methyloxazol-2-yl)pyrrolidine-1-carbonyl)benzamido)-3-phenylpropyl)pyrrolidine-1-carboxylate] | > 1000
Cc1csc(CN(C)C(=O)c2cc(C(=O)N[C@@H](Cc3ccccc3)[C@H](O)[C@H]3CCCN3C(=O)OC(C)(C)C)cc(-c3ncco3)c2)n1 [1-7, (R)-tert-butyl 2-((1S,2S)-1-hydroxy-2-(3-(methyl((4-methylthiazol-2-yl)methyl)carbamoyl)-5-(oxazol-2-yl)benzamido)-3-phenylpropyl)pyrrolidine-1-carboxylate] | > 1000
Cc1cc(C(=O)N[C@@H](Cc2ccccc2)[C@H](O)[C@H]2CCCN2)cc(C(=O)N2CCC[C@@H]2c2nc(C)co2)c1 [1-8, N-((1R,2S)-1-hydroxy-3-phenyl-1-((R)-pyrrolidin-2-yl)propan-2-yl)-3-methyl-5-((R)-2-(4-methyloxazol-2-yl)pyrrolidine-1-carbonyl)benzamide] | > 1000
Cc1csc(CN(C)C(=O)c2cccc(C(=O)N[C@@H](Cc3ccccc3)[C@H](O)[C@H]3C[C@@H](OCc4ccccc4)CN3)c2)n1 [1-9, N1-((1R,2S)-1-((2R,4R)-4-(benzyloxy)pyrrolidin-2-yl)-1-hydroxy-3-phenylpropan-2-yl)-N3-methyl-N3-((4-methylthiazol-2-yl)methyl)isophthalamide] | < 500
Cc1csc(CN(C)C(=O)c2cccc(C(=O)N[C@@H](Cc3ccccc3)[C@H](O)[C@H]3C[C@@H](O)CN3)c2)n1 [1-10, N1-((1R,2S)-1-hydroxy-1-((2R,4R)-4-hydroxypyrrolidin-2-yl)-3-phenylpropan-2-yl)-N3-methyl-N3-((4-methylthiazol-2-yl)methyl)isophthalamide] | > 1000
C[C@@H](NC(=O)c1cc(C(=O)N[C@@H](Cc2ccccc2)[C@H](O)[C@H]2CCCN2)cc(N(C)S(C)(=O)=O)c1)c1ccccc1 [1-11, N1-((1R,2S)-1-hydroxy-3-phenyl-1-((R)-pyrrolidin-2-yl)propan-2-yl)-5-(N-methylmethylsulfonamido)-N3-((R)-1-phenylethyl)isophthalamide] | < 500
Cc1csc(CN(C)C(=O)c2cc(C(=O)N[C@@H](Cc3ccccc3)[C@H](O)[C@H]3CCCN3)cc(-c3cnco3)c2)n1 [1-12, N1-((1R,2S)-1-hydroxy-3-phenyl-1-((R)-pyrrolidin-2-yl)propan-2-yl)-N3-methyl-N3-((4-methylthiazol-2-yl)methyl)-5-(oxazol-5-yl)isophthalamide] | > 1000
Cc1csc(CN(C)C(=O)c2cc(C(=O)N[C@@H](Cc3ccccc3)[C@H](O)[C@H]3CCCN3)cc(-n3cccc3)c2)n1 [1-13, N1-((1R,2S)-1-hydroxy-3-phenyl-1-((R)-pyrrolidin-2-yl)propan-2-yl)-N3-methyl-N3-((4-methylthiazol-2-yl)methyl)-5-(1H-pyrrol-1-yl)isophthalamide] | 500 to 1000
Cc1csc([C@H]2CCCN2C(=O)c2cc(C(=O)N[C@@H](Cc3ccccc3)[C@H](O)[C@H]3CCCN3)cc(C(F)F)c2)n1 [1-14, 3-(difluoromethyl)-N-((1R,2S)-1-hydroxy-3-phenyl-1-((R)-pyrrolidin-2-yl)propan-2-yl)-5-((R)-2-(4-methylthiazol-2-yl)pyrrolidine-1-carbonyl)benzamide] | < 500
Cc1csc(CN(C)C(=O)c2cc(C(=O)N[C@@H](Cc3ccccc3)[C@H](O)[C@H]3CCCN3)cc(-c3ncco3)c2)n1 [1-15, N1-((1R,2S)-1-hydroxy-3-phenyl-1-((R)-pyrrolidin-2-yl)propan-2-yl)-N3-methyl-N3-((4-methylthiazol-2-yl)methyl)-5-(oxazol-2-yl)isophthalamide] | < 500

Now from value to compound:

IC50 [nM] | SMILES
500 to 1000 | Cc1csc([C@H]2CCCN2C(=O)c2cc(C(=O)N[C@@H](Cc3ccccc3)[C@H](O)[C@H]3CCCN3)cc(-n3cccc3)c2)n1 [1-16, N1-((1R,2S)-1-hydroxy-3-phenyl-1-((R)-pyrrolidin-2-yl)propan-2-yl)-3-((R)-2-(4-methylthiazol-2-yl)pyrrolidine-1-carbonyl)-5-(1H-pyrrol-1-yl)benzamide]
< 500 | Cc1coc([C@H]2CCCN2C(=O)c2cc(C(=O)N[C@@H](Cc3ccccc3)[C@H](O)[C@H]3CCCN3)cc(-c3ncco3)c2)n1 [1-17, N-((1R,2S)-1-hydroxy-3-phenyl-1-((R)-pyrrolidin-2-yl)propan-2-yl)-3-((R)-2-(4-methyloxazol-2-yl)pyrrolidine-1-carbonyl)-5-(oxazol-2-yl)benzamide]
< 500 | Cc1csc([C@H]2CCCN2C(=O)c2cc(C(=O)N[C@@H](Cc3ccccc3)[C@H](O)[C@H]3CCCN3)cc(-c3ncco3)c2)n1 [1-19, N-((1R,2S)-1-hydroxy-3-phenyl-1-((R)-pyrrolidin-2-yl)propan-2-yl)-3-((R)-2-(4-methylthiazol-2-yl)pyrrolidine-1-carbonyl)-5-(oxazol-2-yl)benzamide]
< 500 | Cc1csc([C@H]2CCCN2C(=O)c2cc(C(=O)N[C@@H](Cc3ccccc3)[C@H](O)[C@H]3CCCN3)cc(-c3cnccn3)c2)n1 [1-20, N-((1R,2S)-1-hydroxy-3-phenyl-1-((R)-pyrrolidin-2-yl)propan-2-yl)-3-((R)-2-(4-methylthiazol-2-yl)pyrrolidine-1-carbonyl)-5-(pyrazin-2-yl)benzamide]
< 500 | Cc1coc([C@H]2CCCN2C(=O)c2cc(C(=O)N[C@@H](Cc3ccccc3)[C@H](O)[C@H]3CCCN3)cc(-c3cnccn3)c2)n1 [1-21, N-((1R,2S)-1-hydroxy-3-phenyl-1-((R)-pyrrolidin-2-yl)propan-2-yl)-3-((R)-2-(4-methyloxazol-2-yl)pyrrolidine-1-carbonyl)-5-(pyrazin-2-yl)benzamide]
< 500 | Cc1csc([C@H]2CCCN2C(=O)c2cccc(C(=O)N[C@@H](Cc3ccccc3)[C@H](O)[C@H]3C[C@@H](OCc4ccccc4)CN3)c2)n1 [1-22, N-((1R,2S)-1-((2R,4R)-4-(benzyloxy)pyrrolidin-2-yl)-1-hydroxy-3-phenylpropan-2-yl)-3-((R)-2-(4-methylthiazol-2-yl)pyrrolidine-1-carbonyl)benzamide]
< 500 | Cc1csc([C@H]2CCCN2C(=O)c2cc(C(=O)N[C@@H](Cc3ccccc3)[C@H](O)[C@H]3CCCN3)cc(N(C)S(C)(=O)=O)c2)n1 [1-23, N-((1R,2S)-1-hydroxy-3-phenyl-1-((R)-pyrrolidin-2-yl)propan-2-yl)-3-(N-methylmethylsulfonamido)-5-((R)-2-(4-methylthiazol-2-yl)pyrrolidine-1-carbonyl)benzamide]
< 500 | Cc1coc([C@H]2CCCN2C(=O)c2cc(C(=O)N[C@@H](Cc3ccccc3)[C@H](O)[C@H]3CCCN3)cc(-c3ccccn3)c2)n1 [1-24, N-((1R,2S)-1-hydroxy-3-phenyl-1-((R)-pyrrolidin-2-yl)propan-2-yl)-3-((R)-2-(4-methyloxazol-2-yl)pyrrolidine-1-carbonyl)-5-(pyridin-2-yl)benzamide]
< 500 | Cc1csc([C@H]2CCCN2C(=O)c2cc(C(=O)N[C@@H](Cc3ccccc3)[C@H](O)[C@H]3C[C@@H](OCc4ccccc4)CN3)cc(-n3cccc3)c2)n1 [1-25, N-((1R,2S)-1-((2R,4R)-4-(benzyloxy)pyrrolidin-2-yl)-1-hydroxy-3-phenylpropan-2-yl)-3-((R)-2-(4-methylthiazol-2-yl)pyrrolidine-1-carbonyl)-5-(1H-pyrrol-1-yl)benzamide]
< 500 | Cc1csc(CN(C)C(=O)c2cc(C(=O)N[C@@H](Cc3ccccc3)[C@H](O)[C@H]3CCCN3)cc(N(C)S(C)(=O)=O)c2)n1 [1-27, N1-((1R,2S)-1-hydroxy-3-phenyl-1-((R)-pyrrolidin-2-yl)propan-2-yl)-N3-methyl-5-(N-methylmethylsulfonamido)-N3-((4-methylthiazol-2-yl)methyl)isophthalamide]
